Experimental data taken from patent publication US20210101874A1, “MICROBIOCIDAL OXADIAZOLE DERIVATIVES” (SYNGENTA PARTICIPATIONS AG, priority 2017, published 2021).

Experiments:
[1] = tested on: Puccinia recondita f. sp. Tritici; experiment: Puccinia recondita f. sp. tritici / wheat / leaf disc preventative (brown rust); type: in vivo; conditions: foliar, 200 ppm in the applied formulation, wheat leaf segments cv. Kanzler, inoculated 1 day after application, compared to untreated, assessed 7 to 9 days after application, read-out: disease control
How it was run: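 Single evaluation 7–9 d after spraying: % disease control compared with untreated leaf segments. Protocol: cv. Kanzler segments, preventative spray at 200 ppm, spore inoculation at day 1, 19° C., 75% rh, 12 h light/12 h dark.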

[2] = tested on: Glomerella lagenarium (Colletotrichum lagenarium); experiment: Glomerella lagenarium (Colletotrichum lagenarium) liquid culture / cucumber / preventative (anthracnose); type: cell-based; conditions: Colletotrichum orbiculare; 20 ppm in the applied formulation; conidia in PDB nutrient broth, 24° C.; 3 to 4 days after application; compared to untreated; read-out: disease control (inhibition of growth measured photometrically)
How it was run: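 Cryostored conidia in potato dextrose broth added to compound diluted from DMSO solution, 96-well format. Plates incubated at 24 °C. Growth inhibition read photometrically 3 to 4 days after application, as percent activity versus untreated check.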

[3] = tested on: Puccinia recondita f. sp. Tritici; experiment: Puccinia recondita f. sp. tritici / wheat / leaf disc curative (brown rust); type: in vivo; conditions: foliar, 200 ppm in the applied formulation, wheat leaf segments cv. Kanzler, applied 1 day after inoculation, compared to untreated, assessed 6 to 8 days after application, read-out: disease control
How it was run: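 Curative test: wheat leaf segments cv. Kanzler on agar inoculated with spore suspension, kept dark at 19 °C/75% RH, then sprayed 1 day post-inoculation with compound diluted in water. Incubated at 19 °C, 75% RH, 12 h light/dark; percent disease control versus untreated scored 6–8 days after application.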

Phakopsora pachyrhizi = Phakopsora pachyrhizi / soybean / leaf disc preventative (Asian soybean rust); type: in vivo; conditions: foliar, 200 ppm in the applied formulation, soybean leaf disks, inoculated one day after application, compared to untreated, assessed 12 to 14 days after application, read-out: disease control
Description: Leaf disks or leaf segments of various plant species are cut from plants grown in a greenhouse. The cut leaf disks or segments are placed in multiwell plates (24-well format) onto water agar. The leaf disks are sprayed with a test solution before (preventative) or after (curative) inoculation. Compounds to be tested are prepared as DMSO solutions (max. 10 mg/ml) which are diluted to the appropriate concentration with 0.025% Tween20 just before spraying. The inoculated leaf disks or segments are incubated under defined conditions (temperature, relative humidity, light, etc.) according to the respective test system. A single evaluation of disease level is carried out 3 to 14 days after inoculation, depending on the pathosystem. Percent disease control relative to the untreated check leaf disks or segments is then calculated.
Soybean leaf disks are placed on water agar in multiwell plates (24-well format) and sprayed with the formulated test compound diluted in water. One day after application leaf discs are inoculated by spraying a spore suspension on the lower leaf surface. After an incubation period in a climate cabinet of 24-36 hours in darkness at 20° C. and 75% rh leaf disc are kept at 20° C. with 12 h light/day and 75% rh. The activity of a compound is assessed as percent disease control compared to untreated when an appropriate level of disease damage appears in untreated check leaf disks (12 to 14 days after application).
The following compounds at 200 ppm in the applied formulation give at least 80% disease control in this test when compared to untreated control leaf disks under the same conditions, which show extensive disease development.

melting point [°C]	SMILES	pest or weed control at 200 ppm [1] [%]	inhibition at 20 ppm [2] [%]	pest or weed control at 200 ppm [3] [%]	pest or weed control at 200 ppm (Phakopsora pachyrhizi) [%]
108 to 110	CCNS(=O)(=O)N(Cc1ccc(-c2noc(C(F)(F)F)n2)cc1)C1CC1 [Compound 1.17, 3-[4-[[cyclopropyl (ethylsulfamoyl)amino]methyl]phenyl]-5-(trifluoromethyl)-1,2,4-oxadiazole]	≥ 80	≥ 80	≥ 80	≥ 80
86 to 88	CCS(=O)(=O)N(Cc1ccc(-c2noc(C(F)(F)F)n2)cc1)C1CC1 [Compound 1.1, N-cyclopropyl-N-[[4-[5-(trifluoromethyl)-1,2,4-oxadiazol-3-yl]phenyl]methyl] ethanesulfonamide]	≥ 80	≥ 80	≥ 80	≥ 80
84 to 86	CS(=O)(=O)N(Cc1ccc(-c2noc(C(F)(F)F)n2)cc1)C1CC1 [Compound 1.8, N-cyclopropyl-N-[[4-[5-(trifluoromethyl)-1,2,4-oxadiazol-3-yl]phenyl]methyl] methanesulfonamide]	≥ 80	≥ 80	≥ 80	≥ 80

The remaining lines, values behind:

SMILES	melting point [°C]	pest or weed control at 200 ppm [1] [%]	inhibition at 20 ppm [2] [%]	pest or weed control at 200 ppm [3] [%]	pest or weed control at 200 ppm (Phakopsora pachyrhizi) [%]
COCCS(=O)(=O)NCc1ccc(-c2noc(C(F)(F)F)n2)cc1 [Compound 2.1, 2-methoxy-N-[[4-[5-(trifluoromethyl)-1,2,4-oxadiazol-3-yl]phenyl]methyl] ethanesulfon-amide]	97 to 100	≥ 80	≥ 80	≥ 80	≥ 80
O=S(=O)(CC1CC1)NCc1ccc(-c2noc(C(F)(F)F)n2)cc1 [Compound 3.3, 1-cyclopropyl-N-[[4-[5-(trifluoromethyl)-1,2,4-oxadiazol-3-yl]phenyl]methyl] methanesulfonamide]	140 to 144	≥ 80	≥ 80	≥ 80	≥ 80
CN(C)S(=O)(=O)N(C)Cc1ccc(-c2noc(C(F)(F)F)n2)cc1 [Compound 1.12, N-(dimethylsulfamoyl)-N-methyl-1-[4-[5-(trifluoromethyl)-1,2,4-oxadiazol-3-yl]phenyl] methanamine]	77 to 79	≥ 80	≥ 80	≥ 80	≥ 80
CN(Cc1ccc(-c2noc(C(F)(F)F)n2)cc1)S(=O)(=O)N1CCOCC1 [Compound 1.15, N-methyl-N-[[4-[5-(trifluoromethyl)-1,2,4-oxadiazol-3-yl]phenyl]methyl] morpholine-4-sulfonamide]	118 to 120	≥ 80	≥ 80	≥ 80	≥ 80
O=S(=O)(NCc1ccc(-c2noc(C(F)(F)F)n2)cc1)C1CC1 [Compound 3.2, N-[[4-[5-(trifluoromethyl)-1,2,4-oxadiazol-3-yl]phenyl]methyl] cyclopropanesulfon-amide]	130 to 134	≥ 80	≥ 80	≥ 80	≥ 80
CCN(Cc1ccc(-c2noc(C(F)(F)F)n2)cc1F)S(C)(=O)=O [Compound 1.103, N-ethyl-N-[[2-fluoro-4-[5-(trifluoromethyl)-1,2,4-oxadiazol-3-yl]phenyl]methyl] methanesulfonamide]	90 to 93	≥ 80	≥ 80	≥ 80	≥ 80
